Reference: patent US10188651B2, “Methods of treating sleep disorders” (Melior Pharmaceuticals II, LLC, priority 2013, dated 2019)

Assays:
[1] = test system: 6-OHDA unilaterally lesioned Sprague-Dawley rats; test: Abnormal involuntary movements (AIMs) test, Examples 1 and 2; settings: for abnormal involuntary movements (AIMs) score compared to vehicle-treated rats: once daily, scored 60 min after injection, L-dopa 6 mg/kg for 5 days, Sydnocarb 10 and 30 mg/kg, no combination; for effect of test drug on L-dopa-induced AIMs (dyskinesia): L-dopa day 1 (50 mg/kg), L-dopa and test drug day 2
Method: Female, Sprague-Dawley rats (Charles River Laboratories) at 7 to 8 weeks of age were used. Animals were assigned randomly to treatment groups. The diet consisted of standard rodent chow and water ad libitum.
6-OHDA was formulated at 5 mg/ml solution in 0.03% ascorbic acid in sterile 0.9% NaCl. Three μL of 6-OHDA was injected into the median forebrain bundle at the following stereotaxic coordinates from bregma: Anteroposterior (A/P) −4.0 mm; mediolateral (M/L) −1.3 mm; ventrodorsal (V/D) −8.0 mm with reference to the top of the skull.
After lesion, rats were allowed to recover for two weeks and then tested for amphetamine-induced rotational activity. Animals were treated with 25 mg/kg amphetamine in saline and recorded in an open-field chamber for 90 minutes. Only rats rotating greater than 4 times per minute were used in efficacy studies. After an additional one week, rats were treated with L-dopa (Isotec IY0630) at various times and measured for the appearance of abnormal involuntary movements (AIMs).
The AIMs test was carried out as follows: 1) weigh rat and inject with L-dopa/benserazide (10 ml/kg, ip); may be a single injection per day over multiple days; administration of a test compound or reference compound may also be included; 2) place rat in empty cage, start video recording; 3) AIMs were assessed in four areas: a) onset of symptoms-latency (seconds) to first visual AIM as defined below; b) 30 minute AIM score; c) 60 minute AIM score; and d) number of left rotations from 30-60 minutes; 4) AIMs were scored and recorded on a scale from 0 to 4: i) absent; ii) slight left forelimb dystonia with grooming; iii) excessive left forelimb dystonia with grooming; iv) left forelimb dystonia with left circling; and v) continuous left circling with or without grooming; 5) record any unusual clinical signs; and 6) after 60 minutes, stop recording, place rat back into home cage.
Sixty minutes after injection, abnormal involuntary movements (AIMs) were scored.
Rats receiving a unilateral 6-OHDA lesion as described above were treated with L-dopa (day 1, 50 mg/kg) and then L-dopa and test drug (day 2, Sydnocarb or Tesofensine).

[2] = test system: 6-OHDA-lesioned rats; test: Forelimb adjusting step (FAS) test; assay type: in vivo, rat
Method: In 6-OHDA-lesioned rats, L-dopa administration also elicits a therapeutically beneficial anti-akinetic activity that can be measured by the forelimb adjusting step (FAS) test. To determine the effect of Sydnocarb on L-dopa efficacy on this motor function, 6-OHDA-lesioned rats were treated with L-dopa in combination with Sydnocarb at 10 mg/kg and assessed by the FAS test (see, FIG. 3).
For three consecutive days, the experimenter that performed the study handled the rats so they were familiar with the experimenter's grip: the rat was held with one hand fixing the hindlimbs and slightly raising the hind part above the surface; the other hand fixed the forelimb not to be monitored; the forelimb to be monitored was touching the table; the animal was moved slowly sideways (approx. 5 sec for 90 cm), first in the forehand and then in the backhand; and these steps were repeated for the other forelimb. Forehand is defined as compensating movement toward the body and backhand is defined as compensating movement away from the body.
Each stepping test consisted of six trials for each forepaw, alternating between directions both forehand and backhand as follows: the rat was held in the same position as described above with one paw touching the table; the rat was moved slowly sideways (approx 5 sec for 90 cm), first in the forehand and then in the backhand; the number of adjusting steps for both paws in the forehand and back hand directions of movement were counted and recorded; and the sequence of testing was left paw forehand and backhand adjusting stepping, followed by right paw backhand and forehand directions. The rat was returned to its home cage and the sequence repeated with the second rat in the cage. Five more trials were performed for each rat, placing the rats back in their home cage between trials.
This portion of the experiment was run 3-4 weeks post 6-OHDA lesion, and at least 1 week post rotations testing as follows: prior to the start of dosing, rats were trained and baselines performed as above; preparation of L-dopa with benserazide (concentrations are for i.p. injection, 10 ml/kg): a) L-dopa dissolved in saline at 1.2 mg/ml; and b) benserazide dissolved in saline at 0.4 mg/ml; preparation of sydnocarb 10 mg/kg (concentrations are for i.p. injection, 10 ml/kg): a) sydnocarb dissolved in 0.5% methylcellulose, 0.2% tween 80 in dH2O at 1 mg/ml.
Rats were weighed and injected with L-dopa/benserazide (12 mg/kg/4 mg/kg). FAS were run approximately 60 minutes post L-dopa/benserazide dose. Rats were returned to home cage.
Rats were weighed and injected with sydnocarb 10 mg/kg or vehicle (0.5% methylcellulose, 0.2% tween 80 in dH2O), 30 minutes prior to L-dopa/benserazide dosing. The rest of the study was continued as described in Day 1.
Data were represented as percent by summing steps (forward and backhand) of the lesioned forelimb and dividing by the sum of the steps of the intact forelimb and multiplying by 100, giving a measure of the degree of forepaw disability. A similar calculation was obtained for percent of lesioned forelimb, giving a measure of gain of function.
Sprague-Dawley rats (6/group) were injected unilaterally with 6-OHDA as described above. […] Forepaw adjusting steps were scored and graphed as a percent of the intact (unaffected) forelimb. […] (**p<0.01, p=0.058, One-way ANOVA with post-hoc t-test compared to veh+veh). […] Moreover, Sydnocarb may allow the use of lower therapeutic doses of L-dopa, thereby reducing potential L-dopa-induced side effects.
L-dopa was administered at a dose level of 6 mg/kg (ip) along with benserazide (ip; 2 mg/kg). […] For these 6 mg/kg L-dopa studies, rats were combined from two previous L-dopa/Sydnocarb studies and allowed a 3-week wash out period.
After an additional one week, baseline FAS was measured and rats were treated with L-dopa at 6 mg/kg and Sydnocarb at 3 and 10 mg/kg (ip) for 12 days. […]

[3] = test system: unilaterally lesioned 6-OHDA rats; test: Axial, limb and orolingual (ALO) AIMs rating, chronic dosing
Method: L-dopa was administered at a dose level of 12 mg/kg (ip) along with benserazide (ip; 4 mg/kg). Sydnocarb (10 or 30 mg/kg, ip), amantadine (40 mg/kg ip), or vehicle was administered 30 minutes prior to L-dopa/benserazide. As a “priming” step, L-dopa was administered daily by itself for 1 week after the amphetamine rotation wash-out period. Subsequently, Sydnocarb, along with L-dopa, was dosed daily for an additional 12 days.
After treatment, rats were placed in a confined chamber and monitored for axial, limb, and orolingual AIMs every 20-30 minutes for 2 hours as follows:
For the first minute, AIMs were assessed in three areas: • a. Axial: dystonic posturing of the neck and torso in a twisted manner directed toward the side of the body contralateral to the lesion; • b. Forelimb: rapid, purposeless movements of the forelimb located on the side of the body contralateral to the lesion; and; • c. Orolingual: repetitive openings and closings of the jaw and tongue protrusions occurring at times when the rats are not chewing or knowing on food or other objects.
AIMs were scored and recorded on a scale from 0 to 4: • 0=not present; • 1=present for less than 50% of the Observation period; • 2=present for 50% or more of the observation period; • 3=present for the entire observation period but interrupted by a loud stimulus (a tap on the cage); and • 4=present for the entire observation period and not interrupted by a loud stimulus.
For the second minute, contralateral rotations, defined as complete 360 turns away from the lesioned side of the brain, were tallied.
Ipsilateral rotations were counted as negative numbers and thus, deducted from the total contralateral rotations.
For each AIMs subcategory, the scores were summed for the entire testing period.
After an additional one week, baseline AIMs were measured and rats were treated with L-dopa at 12 mg/kg and Sydnocarb at 10 and 30 mg/kg (ip) for 12 days. On days 1, 8, 10, and 12, AIMs were scored every 20 minutes for 2 hours and graphed as a sum of axial, limb, and orolingual (ALO) abnormal movements (FIG. 6).
Sydnocarb was administered at 3 mg/kg (ip) to 6-OHDA-lesioned rats once per day for 12 days.
Sprague-Dawley rats (3/group) were injected unilaterally with 6-OHDA as described herein. Two weeks later, rats were tested for amphetamine-induced rotation activity to verify the dopaminergic lesion. After an additional six weeks, baseline AIMs were measured and rats were treated with Sydnocarb at 3 mg/kg (ip) for 12 days. No L-dopa was administered in this experiment. On days 5 and 12, AIMs were scored at 30, 90, and 150 minutes post-dose and graphed as a sum of axial, limb, and orolingual (ALO) abnormal movements (FIG. 11).

[4] = test system: C57Bl/6 mice treated with MPTP; test: Open Field Activity assay after MPTP; assay type: in vivo, mouse; settings: compound 30 min prior to MPTP (3x20 mg/kg) and daily for 4 days; measured day 5, 30 min open field
Method: An Open Field Activity assay was performed in which locomotor and sensorimotor parameters were evaluated in an automated open-field apparatus. 1-methyl-4-phenyl-1,2,3,6-tetrahydropyridine (MPTP) injections (3×20 mg/kg) were performed in C57Bl/6 mice at two-hour intervals (final dose of MPTP=60 mg/kg). Mice were treated with the compound 30 minutes prior to MPTP and daily for 4 days. Locomotor activity was monitored on day 5, thirty minutes after administration of test compound. Locomotor activity was measured in an automated open-field (MedAssociates) for 30 minutes. The following parameters were measured: 1) horizontal distance traveled, 2) number of rearing events and 3) stereotypic behavior.

[5] = test system: C57Bl/6 mice; test: Mouse electroencephalogram, time awake; assay type: in vivo; settings: intraperitoneal injection 4 hours after lights-on
Method: Electroencephalographic data were obtained in C57Bl/6 mice chronically implanted with electrodes to monitor brain and muscular activity. The percent time spent awake was evaluated following intraperitoneal injections of Sydnocarb 4 hours after lights-on, when mice are predominantly sleeping.

[6] = molecular target: DA transporter (DAT) (Homo sapiens, UniProt Q01959); settings: Gruner et al. 2011; cited from earlier work
Sequence of DA transporter (DAT) (Q01959 whole entry, species assumed): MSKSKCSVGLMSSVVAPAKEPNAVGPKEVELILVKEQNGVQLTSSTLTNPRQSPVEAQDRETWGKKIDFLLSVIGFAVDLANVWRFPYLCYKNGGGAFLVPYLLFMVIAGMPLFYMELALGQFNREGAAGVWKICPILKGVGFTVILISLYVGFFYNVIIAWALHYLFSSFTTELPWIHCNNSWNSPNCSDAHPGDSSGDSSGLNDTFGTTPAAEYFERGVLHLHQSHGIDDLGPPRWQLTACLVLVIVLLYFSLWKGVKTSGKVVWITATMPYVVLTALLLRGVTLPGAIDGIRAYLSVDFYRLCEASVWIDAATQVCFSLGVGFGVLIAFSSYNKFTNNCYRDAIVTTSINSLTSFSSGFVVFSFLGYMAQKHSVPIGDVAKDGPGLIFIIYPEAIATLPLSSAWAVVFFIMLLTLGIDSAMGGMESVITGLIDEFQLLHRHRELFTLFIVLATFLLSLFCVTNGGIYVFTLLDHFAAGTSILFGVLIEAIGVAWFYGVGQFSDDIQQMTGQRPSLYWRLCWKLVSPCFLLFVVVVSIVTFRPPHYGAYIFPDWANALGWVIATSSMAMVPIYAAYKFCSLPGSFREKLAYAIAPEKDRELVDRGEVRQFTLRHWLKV

[7] = test system: noradrenaline reuptake; settings: rat synaptosomes; Erdö et al. 1981; cited from earlier work
[8] = humans and animals; cited from earlier work
[9] = Gruner et al. 2011; cited from earlier work
[10] = test system: extracellular DA; settings: rat striatum and nucleus accumbens; cited from earlier work
[11] = equimolar doses, cited from earlier work
[12] = humans; cited from earlier work
[13] = L-dopa 12 mg/kg and Sydnocarb 10 mg/kg ip (day 2)

## N[C@@H](Cc1ccc(O)c(O)c1)C(=O)O [L-dopa]
[1]
  abnormal involuntary movements (AIMs) score compared to vehicle-treated rats: significantly higher AIMs scores
[1]; two-day treatment with L-dopa, 50 mg/kg
  abnormal involuntary movements (AIMs) caused by L-dopa: increase in abnormal involuntary movements
[2]; L-dopa 6 mg/kg ip alone, 12 days
  FAS, % affected paw compared to baseline: slight increase in adjusting steps compared to baseline
[2]; L-dopa 12 mg/kg alone
  forepaw adjusting steps, percent of the intact forelimb, compared to vehicle: slight increase in steps compared to vehicle
[3]; L-dopa 12 mg/kg ip with benserazide, chronic dosing
  sum of ALO AIMs compared to baseline: increase in AIMS compared to baseline

## CCOC[C@@H]1[C@@H](c2ccc(Cl)c(Cl)c2)C[C@@H]2CC[C@H]1N2C [Tesofensine]
[1]
  effect of test drug on L-dopa-induced AIMs (dyskinesia): had no affect on AIMs
[4]
  vertical activity (rearing events): prevent decrease in vertical activity

## CC(Cc1ccccc1)[n+]1cc([N-]C(=O)Nc2ccccc2)on1 (stereo not drawn) [Sydnocarb, 3-(β-phenylisopropyl)-N-phenylcarbamoylsydnonimine]
[1]
  effect of test drug on L-dopa-induced AIMs (dyskinesia): ameliorates L-dopa-induced dyskinesia
  abnormal involuntary movements (AIMs) score compared to vehicle-treated rats: did not cause significant AIMs
[1]; Sydnocarb administered 30 min after L-dopa, seen 30 and 60 minutes after L-dopa administration
  reduction of L-dopa-induced AIMs: approximately 40%
[2]; L-dopa 6 mg/kg and Sydnocarb 3 mg/kg ip for 12 days, days 5 and 12
  FAS adjusting steps compared to vehicle: increase in adjusting steps compared to vehicle
[2]; L-dopa 6 mg/kg and Sydnocarb 10 mg/kg po for 12 days, day 12, 60 min post-dose
  FAS adjusting steps compared to vehicle (L-dopa alone): slight increase, and importantly no decrease, in adjusting steps
[2]; [13]
  forepaw adjusting steps as percent of the intact forelimb: ~100%
  forepaw adjusting steps, percent of the intact forelimb, compared to vehicle: significant increase
[2]; Sydnocarb 10 mg/kg with L-dopa
  adjusting step scores compared to L-dopa alone: increased scores compared to L-dopa alone
[4]
  vertical activity (rearing events): prevent decrease in vertical activity
[5]
  percent time spent awake compared to vehicle controls: dose-dependently increased time awake
[6]
  DAT activity: has DAT activity
[7]
  noradrenaline reuptake: attenuates noradrenaline reuptake
[8]
  metabolite formed: metabolized to D-amphetamine
[9]
  rebound hypersomnolence: lacks the rebound hypersomnolence
[10]
  extracellular DA increase compared with D-AMPH: slower and more gradual increase in extracellular DA
[11]; DA depletion, reactive oxygen species, lipid peroxidation
  markers of neurotoxicity relative to D-AMPH: smaller changes in the markers of neurotoxicity
[11]
  hyperlocomotion and stereotypy relative to D-AMPH: less hyperlocomotion and stereotypy
[12]
  toxic episodes and abuse potential: neither significant toxic episodes nor abuse potential have been reported
[3]; L-dopa 12 mg/kg and Sydnocarb 10 and 30 mg/kg ip for 12 days, days 1, 8, 10, 12
  sum of ALO AIMs compared to vehicle: decrease in AIMs compared to vehicle
[3]; L-dopa 12 mg/kg and Sydnocarb 10 and 30 mg/kg po for 12 days, days 5 and 12
  sum of ALO AIMs compared to vehicle: decrease in AIMs compared to vehicle
[3]; Sydnocarb 3 mg/kg ip for 12 days, no L-dopa
  AIMs scores relative to L-dopa treatment: approximately 20 times lower
[3]; Sydnocarb 3 mg/kg ip for 12 days, no L-dopa, days 5 and 12
  sum of ALO AIMs, Sydnocarb alone: nominal AIMs
